Reference: patent US10921324B2, “Compositions and methods related to the methylation of histone H1.0 protein” (Aelan Cell Technologies, Inc., priority 2016, dated 2021)
Ends that are not written are not given here.

Columns and labels:
[1] = system: G9A methyltransferase; experiment: Radiolabel in vitro methylation assay of H1.0 peptide (autoradiography); format: biochemical; conditions: 10U G9A, S-[Methyl-3H] SAM, 37° C. 1 hour
Experimental: In order to visualize methylation of H1.0 peptide by G9A methyltransferase in vitro, a methylation assay was performed incorporating a radiolabelled methyl donor, which allows for visualization of methylated peptide on a gel after autoradiography exposure. The following methylation reaction was set up in a 1.5 ml tube: 1×HMT reaction buffer (50 mM Tris-HCl, 5 mM MgCl2, 4 mM dithiothreitol, pH 9.0), 10U G9A Methyltransferase (NEB, M0235S, Lot #0031201), 3.2 mM Adenosyl-L-Methionine, S-[Methyl-3H] (Perkin Elmer, NET155H, Lot #1664720), 10 μg H1.0 peptide (ThermoFisher Scientific, Biotin-[…] (SEQ ID NO:69)), final volume 10 μl. A control reaction as above but without H1.0 peptide was also created. Reactions were incubated in a thermocycler at 37° C. for 1 hour. Reactions were stopped by incubating on ice for 5 minutes, and subsequently resolved on a 16.5% Tricine gel (BioRad, 4563063). Gels were soaked in 30% methanol, 5% glycerol for 30 minutes before vacuum drying at RT for 24 hours. Autoradiography analysis of dried gels with a phosphoimager (Molecular Dynamics) was then performed to assess effective methylation of H1.0 peptide with methyl-3H groups by the G9A methyltransferase. (Example 1, FIG. 8A)
The methylation reaction was subsequently resolved on a gel and visualized via autoradiography. […] A control reaction lacking H1.0 peptide yielded no tritium-labeled products.

[2] = system: G9A methyltransferase; experiment: In vitro methylation of unmodified H1.0 peptide with G9A, products by LC-MS; format: biochemical
Experimental: In order to identify the precise sites of methylation by G9A and GLP methyltransferases on histone H1.0, in vitro methylation assays were performed and subsequently analyzed by Liquid Chromatography and High-resolution Mass Spectrometry (LC-MS) analysis. Methylation reactions were set up using either G9A methyltransferase (NEB, M0235S, Lot #0031201) or GLP methyltransferase (Cayman Chemical, 10755). The methyl donor in each reaction was unlabeled S-Adenosyl-L-Methionine (NEB, B9003S). The H1.0 substrate in each reaction was either unmodified H1.0 peptide labeled with biotin (ThermoFisher Scientific, Biotin-[…] (SEQ ID NO:69)), di-methylated H1.0 peptide (ThermoFisher Scientific, Biotin-[…]^(me2)PK (SEQ ID NO:70)), or full-length recombinant human H1.0 (NEB, M2501S). […]
For the Liquid Chromatography and High-resolution Mass Spectrometry (LC-MS) analysis, samples were prepared as described above and about 1 μg o the product was injected onto a Thermo Scientific Easy nLC system configured with a 10 cm×100 um trap column and a 25 cm×100 um ID resolving column. […] This ensured optimal full-scan data for quantification. […]
Protein identification was performed using Thermo Scientific Proteome Discoverer version 1.4 (including Sequest and Percolator algorithms) using RefSeqHuman sequence database. […] Protein quantification was performed using Pinpoint version 1.4 software. The Pinpoint quantification workflow included importing the Proteome Discoverer .msf files as spectral libraries. Identified peptides were subsequently quantified in MS .raw files using the Pinpoint peak finding, chromatographic alignment and area calculation algorithms.
In order to identify the precise locations of G9A methylation on unmodified H1.0 peptide ([…] (SEQ ID NO:36)), a methylation reaction was set up and the products identified by LC-MS. […] The methylation reaction was subsequently analyzed by LC-MS, and each spectral peak (corresponding to a peptide species in the final reaction) was identified and quantified using spectral counts. […]

Sequence of G9A methyltransferase (Q9Z148 969-1263 limits assumed): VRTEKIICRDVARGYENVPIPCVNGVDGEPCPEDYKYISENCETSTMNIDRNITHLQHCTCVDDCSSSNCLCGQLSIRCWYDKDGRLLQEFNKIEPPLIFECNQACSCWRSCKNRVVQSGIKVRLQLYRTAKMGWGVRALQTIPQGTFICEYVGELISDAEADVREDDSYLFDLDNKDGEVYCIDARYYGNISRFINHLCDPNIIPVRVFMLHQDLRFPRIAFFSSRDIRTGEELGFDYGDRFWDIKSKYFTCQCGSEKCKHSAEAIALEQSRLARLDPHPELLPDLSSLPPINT

## AKPVKASKPKKAKPVKPK (not fully specified (N-terminus); listed as Homo sapiens) [unmethylated H1.0 peptide, unmodified H1.0 peptide substrate for in vitro methylation]
[1]
  methylation of H1.0 peptide by G9A (tritium-labeled methyl groups, band at 4 kDa): capable of methylating an H1.0 peptide
[2]; LC-MS
  sites of methylation by G9A on the peptide: dimethylates lysine K180 but not other lysines (K166, K174, K175 or K177)
[2]; LC-MS spectral counts, 10U G9A, 3.2 mM S-Adenosyl-L-Methionine, 37° C. 1 hour
  H1.0K180 dimethylated, % of all peptides: 99.9%
[2]; dimethylation of K180 by G9A
  estimated methylation efficiency: about 99%
